Experimental data: ChEMBL document CHEMBL2401711, “Recent progress and future options in the development of GLP-1 receptor agonists for the treatment of diabesity” (Bioorg Med Chem Lett, 2013)

How the values were obtained:
[1] = Terminal half life in type 2 diabetes patient at 10 ug, sc bid; assay type: ADME, organism-based; conditions: human, in vivo, read-out: beta t1/2 (converted)
Albumin = Albumin (Homo sapiens, UniProt P02768); test: Binding affinity to serum albumin (unknown origin) relative to control; assay type: ADME; conditions: isolated protein
Albumin, sequence (P02768 whole entry): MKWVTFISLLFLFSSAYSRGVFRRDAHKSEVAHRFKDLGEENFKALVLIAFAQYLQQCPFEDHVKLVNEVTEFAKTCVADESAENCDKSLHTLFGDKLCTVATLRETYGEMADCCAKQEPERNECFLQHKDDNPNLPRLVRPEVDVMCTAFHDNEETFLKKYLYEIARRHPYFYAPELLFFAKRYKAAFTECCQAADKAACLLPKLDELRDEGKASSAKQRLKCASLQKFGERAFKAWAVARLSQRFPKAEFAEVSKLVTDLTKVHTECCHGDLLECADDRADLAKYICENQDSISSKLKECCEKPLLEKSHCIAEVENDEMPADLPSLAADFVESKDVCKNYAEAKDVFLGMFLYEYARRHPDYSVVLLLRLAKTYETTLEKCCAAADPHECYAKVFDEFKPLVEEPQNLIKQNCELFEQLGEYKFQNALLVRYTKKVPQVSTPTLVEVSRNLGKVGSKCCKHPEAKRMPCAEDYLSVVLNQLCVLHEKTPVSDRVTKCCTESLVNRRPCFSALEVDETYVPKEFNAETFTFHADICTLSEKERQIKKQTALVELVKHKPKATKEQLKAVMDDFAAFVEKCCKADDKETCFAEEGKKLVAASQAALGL

[2] = (§1) Half life in human; assay type: ADME, organism-based; conditions: in vivo
Homo sapiens [3] = organism: Homo sapiens; test: as §1; assay type: ADME, organism-based; conditions: in vivo
Homo sapiens [4] = test: Antidiabetic activity in type 2 diabetes patient assessed as reduction of body weight at => 0.8 mg administered once per week measured after 12 weeks (reference value: 1.2 kg); assay type: functional, organism-based
Homo sapiens [5] = test: Antidiabetic activity in type 2 diabetes patient assessed as reduction of HbA1c at => 0.2 mg administered once per week measured after 12 weeks (reference value: 0.5%); assay type: functional, organism-based; set-up: scale not given: the % may be the effect or the level left
Homo sapiens [6] = test: Toxicity in type 2 diabetes patient assessed as gastro-intestinal side effects at 10 to 20 mg administered once per week up to 104 weeks; assay type: organism-based; conditions: in vivo, 17472 h

Molecule: CC[C@H](C)[C@H](NC(=O)[C@H](C)NC(=O)CNC(=O)[C@H](Cc1ccccc1)NC(=O)[C@H](CC(N)=O)NC(=O)[C@H](CC(N)=O)NC(=O)[C@H](CO)NC(=O)[C@H](CO)NC(=O)[C@H](Cc1c[nH]cn1)NC(=O)[C@@H](NC(=O)[C@H](CC(C)C)NC(=O)[C@H](Cc1ccccc1)NC(=O)[C@H](CC(N)=O)NC(=O)[C@H](C)NC(=O)[C@H](CC(C)C)NC(=O)[C@H](CCCNC(=N)N)NC(=O)[C@H](CCC(N)=O)NC(=O)[C@@H](NC(=O)[C@H](C)NC(=O)[C@@H]1CSSC[C@H](NC(=O)[C@@H](N)CCCCN)C(=O)N[C@@H](CC(N)=O)C(=O)N[C@@H]([C@@H](C)O)C(=O)N[C@@H](C)C(=O)N[C@@H]([C@@H](C)O)C(=O)N1)[C@@H](C)O)C(C)C)C(=O)N[C@@H](CC(C)C)C(=O)N[C@@H](CO)C(=O)N[C@@H](CO)C(=O)N[C@H](C(=O)N[C@@H](CC(N)=O)C(=O)N[C@H](C(=O)NCC(=O)N[C@@H](CO)C(=O)N[C@@H](CC(N)=O)C(=O)N[C@H](C(=O)N[C@@H](Cc1ccc(O)cc1)C(=O)O)[C@@H](C)O)C(C)C)[C@@H](C)O [AMYLIN]
- half-life [1]: 144 min

Molecule: CCCCCCCCCCCCCCCC(=O)N[C@@H](CCC(=O)NCCCC[C@H](NC(=O)[C@H](C)NC(=O)[C@H](C)NC(=O)[C@H](CCC(N)=O)NC(=O)CNC(=O)[C@H](CCC(=O)O)NC(=O)[C@H](CC(C)C)NC(=O)[C@H](Cc1ccc(O)cc1)NC(=O)[C@H](CO)NC(=O)[C@H](CO)NC(=O)[C@@H](NC(=O)[C@H](CC(=O)O)NC(=O)[C@H](CO)NC(=O)[C@@H](NC(=O)[C@H](Cc1ccccc1)NC(=O)[C@@H](NC(=O)CNC(=O)[C@H](CCC(=O)O)NC(=O)[C@H](C)NC(=O)[C@@H](N)Cc1cnc[nH]1)[C@@H](C)O)[C@@H](C)O)C(C)C)C(=O)N[C@@H](CCC(=O)O)C(=O)N[C@@H](Cc1ccccc1)C(=O)N[C@H](C(=O)N[C@@H](C)C(=O)N[C@@H](Cc1c[nH]c2ccccc12)C(=O)N[C@@H](CC(C)C)C(=O)N[C@H](C(=O)N[C@@H](CCCNC(=N)N)C(=O)NCC(=O)N[C@@H](CCCNC(=N)N)C(=O)NCC(=O)O)C(C)C)[C@@H](C)CC)C(=O)O [LIRAGLUTIDE]
- Activity (Albumin): 99%
- half-life [2]: 11 days

Molecule: SEMAGLUTIDE [listing 1 of 2 here]
- t1/2 (Homo sapiens [3]): 160 h

Molecule: SEMAGLUTIDE [listing 2 of 2 here]
- Activity (Homo sapiens [4]): < 4.8 kg
- Activity (Homo sapiens [5]): < 1.7%

Molecule: TASPOGLUTIDE
- Activity (Homo sapiens [6]): 34%
